# Where a SMILES comes first, the peptide text is derived from it. The star is where a group is joined. Palmitoyl = CCCCCCCCCCCCCCCC(=O)*; Myristoyl = CCCCCCCCCCCCCC(=O)*
# What was measured:
# Format in all cases: cell-based
# [1] = system: Aspergillus brasiliensis (ATCC 16404); settings: ATCC 16404, 48 h
# How it was run: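 CLSI broth microdilution: bacteria in Mueller-Hinton broth at 10^5 cfu/mL inoculum, 18 h at 37°C; fungi in Sabouraud Dextrose broth at 10^3 cfu/mL, 48 h at 25°C. MIC (μg/mL) is the lowest lipopeptide concentration inhibiting visible growth; triplicate on three days.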
# [2] = system: Bacillus subtilis (ATCC 6633); settings: for MIC Bacillus subtillis: ATCC 6633, 18 h; for MBC Bacillus subtillis: ATCC 6633, 24 h
# How it was run: (§1)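 Broth microdilution per CLSI: Mueller-Hinton broth, 10^5 cfu/mL inoculum, 18 h at 37°C for bacteria; Sabouraud dextrose broth, 10^3 cfu/mL, 48 h at 25°C for fungi. MIC (μg/mL) is the lowest lipopeptide concentration inhibiting visible growth; MBC/MFC also determined. Triplicate on three days.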
# [3] = system: Candida albicans (ATCC 10231); settings: ATCC 10231, 48 h
# How it was run: as §1
# [4] = system: Candida tropicalis (PCM 2681); settings: PCM 2681, 48 h
# How it was run: as §1
# [5] = system: Enterococcus faecalis (ATCC 29212); settings: for MBC Enterococcus fecalis, lipopeptides without TFA counter ion / MIC Enterococcus fecalis / MIC Enterococcus fecalis, lipopeptides without TFA counter ion: ATCC 29212, 18 h; for MBC Enterococcus fecalis: ATCC 29212, 24 h
# How it was run: as §1
# [6] = system: Escherichia coli (ATCC 25922); settings: for MBC Escherichia coli, lipopeptides without TFA counter ion / MIC Escherichia coli / MIC Escherichia coli, lipopeptides without TFA counter ion: ATCC 25922, 18 h; for MBC Escherichia coli: ATCC 25922, 24 h
# How it was run: as §1
# [7] = system: Klebsiella pneumoniae (ATCC 700603); settings: for MBC Klebsiella pneumoniae, lipopeptides without TFA counter ion / MIC Klebsiella pneumoniae / MIC Klebsiella pneumoniae, lipopeptides without TFA counter ion: ATCC 700603, 18 h; for MBC Klebsiella pneumoniae: ATCC 700603, 24 h
# How it was run: as §1
# [8] = system: Proteus vulgaris (PCM 2668); settings: 18 h
# How it was run: as §1
# [9] = system: Pseudomonas aeruginosa (ATCC 9027); settings: ATCC 9027, 18 h
# How it was run: as §1
# [10] = system: Staphylococcus aureus (ATCC 25923); settings: for MBC Staphylococcus aureus, lipopeptides without TFA counter ion / MIC Staphylococcus aureus / MIC Staphylococcus aureus, lipopeptides without TFA counter ion: ATCC 25923, 18 h; for MBC Staphylococcus aureus: ATCC 25923, 24 h
# How it was run: as §1
# [11] = system: Staphylococcus epidermidis (PCM 2118); settings: for MIC Staphylococcus epidermidis: PCM 2118, 18 h; for MBC Staphylococcus epidermidis: PCM 2118, 24 h
# How it was run: as §1
# human red blood cells = settings: 1 h
# How it was run: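 Washed donor erythrocytes (4% v/v in PBS, EDTA-anticoagulated) incubated with graded lipopeptide concentrations for 1 h at 37 °C; hemoglobin release read at 550 nm in supernatants. Scaled between 0.1% Triton X-100 (100%) and PBS (0%); MHC is the lowest concentration giving 10% hemolysis.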
# [12] = system: Pseudomonas aeruginosa (ATCC 9027); settings: ATCC 9027, 24 h
# [13] = system: Proteus vulgaris (PCM 2668); settings: 24 h
# [14] = system: Candida albicans (ATCC 10231)
structure (smiles),measurement,setting,value
CCCCCCCCCCCCCC(=O)N[C@@H](CCCCN)C(=O)N[C@@H](CCCCN)C(=O)N[C@@H](CCCCN)C(=O)N[C@@H](CCCCN)C(N)=O [C14-KKKK-NH2] (Myristoyl-KKKK-NH2),MFC Aspergillus brasiliensis,[1],64 µg/mL
same,MIC Aspergillus brasiliensis,[1],64 µg/mL
same,MIC Bacillus subtillis,[2],4 µg/mL
same,MBC Bacillus subtillis,[2],4 µg/mL
same,MFC Candida albicans,[3],128 µg/mL
same,MIC Candida albicans,[3],128 µg/mL
same,"MIC Candida albicans, lipopeptides without TFA counter ion",[3],256 µg/mL
same,MFC Candida tropicalis,[4],128 µg/mL
same,MIC Candida tropicalis,[4],128 µg/mL
same,"MBC Enterococcus fecalis, lipopeptides without TFA counter ion",[5],64 µg/mL
same,MIC Enterococcus fecalis,[5],64 µg/mL
same,"MIC Enterococcus fecalis, lipopeptides without TFA counter ion",[5],64 µg/mL
same,MBC Enterococcus fecalis,[5],64 µg/mL
same,"MBC Escherichia coli, lipopeptides without TFA counter ion",[6],256 µg/mL
same,MIC Escherichia coli,[6],256 µg/mL
same,"MIC Escherichia coli, lipopeptides without TFA counter ion",[6],256 µg/mL
same,MBC Escherichia coli,[6],256 µg/mL
same,"MBC Klebsiella pneumoniae, lipopeptides without TFA counter ion",[7],128 µg/mL
same,MIC Klebsiella pneumoniae,[7],128 µg/mL
same,"MIC Klebsiella pneumoniae, lipopeptides without TFA counter ion",[7],128 µg/mL
same,MBC Klebsiella pneumoniae,[7],256 µg/mL
same,MIC Proteus vulgaris,[8],>512 µg/mL
same,MIC Pseudomonas aeruginosa,[9],256 µg/mL
same,"MBC Staphylococcus aureus, lipopeptides without TFA counter ion",[10],128 µg/mL
same,MIC Staphylococcus aureus,[10],128 µg/mL
same,"MIC Staphylococcus aureus, lipopeptides without TFA counter ion",[10],128 µg/mL
same,MBC Staphylococcus aureus,[10],128 µg/mL
same,MIC Staphylococcus epidermidis,[11],16 µg/mL
same,MBC Staphylococcus epidermidis,[11],16 µg/mL
same,"Hemolysis HC10 (MHC), concentration of lipopeptide inducing 10% of hemolysis",human red blood cells,256 µg/mL
same,MBC Pseudomonas aeruginosa,[12],512 µg/mL
same,MBC Proteus vulgaris,[13],>512 µg/mL
same,"MFC Candida albicans, lipopeptides without TFA counter ion",[14],256 µg/mL
CCCCCCCCCCCCCCCC(=O)N[C@@H](CCCCN)C(N)=O [C16-K-NH2],MFC Aspergillus brasiliensis,[1],>512 µg/mL
same,MIC Aspergillus brasiliensis,[1],>512 µg/mL
same,MIC Bacillus subtillis,[2],8 µg/mL
same,MBC Bacillus subtillis,[2],8 µg/mL
same,MFC Candida albicans,[3],512 µg/mL
same,MIC Candida albicans,[3],512 µg/mL
same,"MIC Candida albicans, lipopeptides without TFA counter ion",[3],512 µg/mL
same,MFC Candida tropicalis,[4],>512 µg/mL
same,MIC Candida tropicalis,[4],>512 µg/mL
same,"MBC Enterococcus fecalis, lipopeptides without TFA counter ion",[5],32 µg/mL
same,MIC Enterococcus fecalis,[5],32 µg/mL
same,"MIC Enterococcus fecalis, lipopeptides without TFA counter ion",[5],32 µg/mL
same,MBC Enterococcus fecalis,[5],64 µg/mL
same,"MBC Escherichia coli, lipopeptides without TFA counter ion",[6],512 µg/mL
same,MIC Escherichia coli,[6],512 µg/mL
same,"MIC Escherichia coli, lipopeptides without TFA counter ion",[6],512 µg/mL
same,MBC Escherichia coli,[6],>512 µg/mL
same,"MBC Klebsiella pneumoniae, lipopeptides without TFA counter ion",[7],512 µg/mL
same,MIC Klebsiella pneumoniae,[7],512 µg/mL
same,"MIC Klebsiella pneumoniae, lipopeptides without TFA counter ion",[7],512 µg/mL
same,MBC Klebsiella pneumoniae,[7],>512 µg/mL
same,MIC Proteus vulgaris,[8],>512 µg/mL
same,MIC Pseudomonas aeruginosa,[9],512 µg/mL
same,"MBC Staphylococcus aureus, lipopeptides without TFA counter ion",[10],128 µg/mL
same,MIC Staphylococcus aureus,[10],512 µg/mL
same,"MIC Staphylococcus aureus, lipopeptides without TFA counter ion",[10],128 µg/mL
same,MBC Staphylococcus aureus,[10],512 µg/mL
same,MIC Staphylococcus epidermidis,[11],8 µg/mL
same,MBC Staphylococcus epidermidis,[11],16 µg/mL
same,"Hemolysis HC10 (MHC), concentration of lipopeptide inducing 10% of hemolysis",human red blood cells,512 µg/mL
same,MBC Pseudomonas aeruginosa,[12],>512 µg/mL
same,MBC Proteus vulgaris,[13],>512 µg/mL
same,"MFC Candida albicans, lipopeptides without TFA counter ion",[14],512 µg/mL
CCCCCCCCCCCCCCCC(=O)N[C@@H](CCCCN)C(=O)NCC(N)=O [C16-KG-NH2] (Palmitoyl-Lys-Gly-NH2),MFC Aspergillus brasiliensis,[1],512 µg/mL
same,MIC Aspergillus brasiliensis,[1],512 µg/mL
same,MIC Bacillus subtillis,[2],4 µg/mL
same,MBC Bacillus subtillis,[2],4 µg/mL
same,MFC Candida albicans,[3],128 µg/mL
same,MIC Candida albicans,[3],128 µg/mL
same,"MIC Candida albicans, lipopeptides without TFA counter ion",[3],128 µg/mL
same,MFC Candida tropicalis,[4],512 µg/mL
same,MIC Candida tropicalis,[4],256 µg/mL
same,"MBC Enterococcus fecalis, lipopeptides without TFA counter ion",[5],8 µg/mL
same,MIC Enterococcus fecalis,[5],16 µg/mL
same,"MIC Enterococcus fecalis, lipopeptides without TFA counter ion",[5],4 µg/mL
same,MBC Enterococcus fecalis,[5],16 µg/mL
same,"MBC Escherichia coli, lipopeptides without TFA counter ion",[6],256 µg/mL
same,MIC Escherichia coli,[6],256 µg/mL
same,"MIC Escherichia coli, lipopeptides without TFA counter ion",[6],256 µg/mL
same,MBC Escherichia coli,[6],256 µg/mL
same,"MBC Klebsiella pneumoniae, lipopeptides without TFA counter ion",[7],256 µg/mL
same,MIC Klebsiella pneumoniae,[7],128 µg/mL
same,"MIC Klebsiella pneumoniae, lipopeptides without TFA counter ion",[7],128 µg/mL
same,MBC Klebsiella pneumoniae,[7],256 µg/mL
same,MIC Proteus vulgaris,[8],>512 µg/mL
same,MIC Pseudomonas aeruginosa,[9],256 µg/mL
same,"MBC Staphylococcus aureus, lipopeptides without TFA counter ion",[10],4 µg/mL
same,MIC Staphylococcus aureus,[10],8 µg/mL
same,"MIC Staphylococcus aureus, lipopeptides without TFA counter ion",[10],4 µg/mL
same,MBC Staphylococcus aureus,[10],8 µg/mL
same,MIC Staphylococcus epidermidis,[11],4 µg/mL
same,MBC Staphylococcus epidermidis,[11],4 µg/mL
same,"Hemolysis HC10 (MHC), concentration of lipopeptide inducing 10% of hemolysis",human red blood cells,256 µg/mL
same,MBC Pseudomonas aeruginosa,[12],1000 µg/mL
same,MBC Proteus vulgaris,[13],>512 µg/mL
same,"MFC Candida albicans, lipopeptides without TFA counter ion",[14],128 µg/mL

# From PMC5285354, “Cationic Net Charge and Counter Ion Type as Antimicrobial Activity Determinant Factors of Short Lipopeptides” (Frontiers in Microbiology, 2017)
